The subject of one test is H9c2. Kind of test: cells. The following applies: Rattus norvegicus, H9c2, Myocardium. The format is functional, cell-based.
The target of test [1] is ADP-ribosylation factor GTPase-activating protein 1 (Rattus norvegicus, UniProt Q62848). Kind of test: Fluorescence polarization-based biochemical high throughput dose response screening assay to identify inhibitors of ADP-ribosylation factor GTPase activating protein 1 (ARFGAP1). The format is functional. (In general: Polarisation of emitted light reports the rotation of a fluorescent probe.)
Chain of ADP-ribosylation factor GTPase-activating protein 1 (Q62848 whole entry): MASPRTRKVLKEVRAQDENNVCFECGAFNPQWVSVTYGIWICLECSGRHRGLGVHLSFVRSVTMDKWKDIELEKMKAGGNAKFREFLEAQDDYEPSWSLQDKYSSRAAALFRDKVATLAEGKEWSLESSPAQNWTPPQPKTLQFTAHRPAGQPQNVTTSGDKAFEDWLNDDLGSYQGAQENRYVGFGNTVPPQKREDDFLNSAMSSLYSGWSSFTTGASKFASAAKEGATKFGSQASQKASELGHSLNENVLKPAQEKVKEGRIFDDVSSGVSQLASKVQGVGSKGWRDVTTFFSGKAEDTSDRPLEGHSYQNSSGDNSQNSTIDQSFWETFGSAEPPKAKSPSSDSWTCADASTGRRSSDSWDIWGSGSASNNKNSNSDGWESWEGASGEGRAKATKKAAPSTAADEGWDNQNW

For test [2], the target named is Hepatocyte nuclear factor 4-alpha (Homo sapiens, UniProt P41235). The format is functional, cell-based.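 Note: biochemical luminescence-based dose-response counterscreen measuring inhibition of HNF4 dimerization, run alongside a screen for blockers of ABHD5–perilipin-5 interaction; split luciferase complementation of HNF4 fusion proteins in cell lysate measuring dimerization.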
Chain of Hepatocyte nuclear factor 4-alpha (P41235 whole entry, the tested form may be a part): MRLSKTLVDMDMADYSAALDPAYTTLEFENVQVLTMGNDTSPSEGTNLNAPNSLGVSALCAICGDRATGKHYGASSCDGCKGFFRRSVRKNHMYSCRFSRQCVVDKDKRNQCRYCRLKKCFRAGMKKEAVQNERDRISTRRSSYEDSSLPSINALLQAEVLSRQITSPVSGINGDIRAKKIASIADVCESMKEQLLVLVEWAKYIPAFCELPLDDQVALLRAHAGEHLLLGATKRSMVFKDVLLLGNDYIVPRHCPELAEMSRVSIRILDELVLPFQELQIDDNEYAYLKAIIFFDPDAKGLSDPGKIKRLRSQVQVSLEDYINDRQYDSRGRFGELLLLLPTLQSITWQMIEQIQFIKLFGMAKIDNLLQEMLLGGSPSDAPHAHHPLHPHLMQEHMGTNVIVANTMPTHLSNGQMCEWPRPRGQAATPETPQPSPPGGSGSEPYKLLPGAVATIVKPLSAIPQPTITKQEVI
The nature of test [3]: Counterscreen for inhibitors of Trypanosoma brucei methionyl tRNA synthetase (MetRS): Luminescence-based cell-based high throughput dose response assay to identify compounds that are cytotoxic to Jurkat human T lymphocyte cells. It is filed as functional. (In general: Counterscreens check selectivity or assay interference.)
Another test concerns the target T1, Aminopeptidase N (Plasmodium falciparum FcB1/Columbia, UniProt O96935).
T1 sequence (O96935 whole entry): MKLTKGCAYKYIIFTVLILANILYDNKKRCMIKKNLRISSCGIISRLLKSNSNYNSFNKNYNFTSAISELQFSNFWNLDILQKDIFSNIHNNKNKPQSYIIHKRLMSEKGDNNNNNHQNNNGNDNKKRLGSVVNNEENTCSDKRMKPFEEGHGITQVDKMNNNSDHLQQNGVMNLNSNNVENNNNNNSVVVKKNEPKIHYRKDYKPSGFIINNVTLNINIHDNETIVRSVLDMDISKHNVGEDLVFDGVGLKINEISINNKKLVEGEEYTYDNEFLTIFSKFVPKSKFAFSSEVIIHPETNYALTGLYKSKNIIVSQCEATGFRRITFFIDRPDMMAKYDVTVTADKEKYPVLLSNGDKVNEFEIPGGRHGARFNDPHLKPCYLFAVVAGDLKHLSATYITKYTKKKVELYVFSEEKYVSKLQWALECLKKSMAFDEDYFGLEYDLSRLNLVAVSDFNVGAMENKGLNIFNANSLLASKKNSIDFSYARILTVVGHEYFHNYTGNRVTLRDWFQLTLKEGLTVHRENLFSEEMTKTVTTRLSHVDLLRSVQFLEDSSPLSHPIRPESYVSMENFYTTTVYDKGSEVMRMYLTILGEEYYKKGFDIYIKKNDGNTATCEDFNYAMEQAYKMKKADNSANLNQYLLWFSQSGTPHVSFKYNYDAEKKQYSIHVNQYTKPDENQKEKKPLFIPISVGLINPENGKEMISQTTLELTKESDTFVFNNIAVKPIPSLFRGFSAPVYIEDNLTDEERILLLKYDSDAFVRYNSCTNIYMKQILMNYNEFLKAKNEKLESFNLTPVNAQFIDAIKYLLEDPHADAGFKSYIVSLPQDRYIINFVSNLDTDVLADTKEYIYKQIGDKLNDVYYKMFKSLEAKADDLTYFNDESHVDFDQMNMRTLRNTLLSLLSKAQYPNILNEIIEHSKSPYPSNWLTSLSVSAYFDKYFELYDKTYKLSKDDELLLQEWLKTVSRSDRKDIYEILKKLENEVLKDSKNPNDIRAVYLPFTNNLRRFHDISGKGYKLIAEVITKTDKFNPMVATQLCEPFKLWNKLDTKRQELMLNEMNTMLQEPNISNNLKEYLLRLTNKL
Nature of the test: P. falciparum M1AAP inhibitors, biochemical, fluorogenic H-Leu-NHMec substrate, 1536-well (AID 1445). Details: species or system Plasmodium falciparum 3D7, 3D7.

A further test has as its target Genome polyprotein (dengue virus type 2, UniProt P29990). Nature of the test: Dengue-2 NS5 methyltransferase inhibitors, primary screen, biochemical, confirmation dose response (AID 588689). The format is functional.
In test [4] the target is T2, Probable nicotinate-nucleotide adenylyltransferase (Staphylococcus aureus (strain N315), UniProt P65502). It is filed as functional, Staphylococcus aureus subsp. aureus N315.
T2 sequence (P65502 whole entry): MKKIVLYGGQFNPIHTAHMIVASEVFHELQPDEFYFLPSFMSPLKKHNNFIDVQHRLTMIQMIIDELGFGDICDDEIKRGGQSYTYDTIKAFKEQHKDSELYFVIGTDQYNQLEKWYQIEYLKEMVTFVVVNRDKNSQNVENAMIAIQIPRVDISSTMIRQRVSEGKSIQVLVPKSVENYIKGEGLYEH
The target in test [5] is T2, Probable nicotinate-nucleotide adenylyltransferase. It is filed as functional, Staphylococcus aureus subsp. aureus N315. Conditions: read-out: IC50_Mean.
Test [6] has as its target T3, Sentrin-specific protease 8 (Homo sapiens, UniProt Q96LD8).
T3 sequence (Q96LD8 whole entry): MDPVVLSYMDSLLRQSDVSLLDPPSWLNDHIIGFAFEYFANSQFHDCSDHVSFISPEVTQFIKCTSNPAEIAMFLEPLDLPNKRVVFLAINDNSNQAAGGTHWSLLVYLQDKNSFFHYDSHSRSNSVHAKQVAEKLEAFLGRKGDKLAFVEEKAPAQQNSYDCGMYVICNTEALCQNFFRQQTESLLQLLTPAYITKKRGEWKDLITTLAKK
It is filed as functional.

Test [7] concerns the target T3, Sentrin-specific protease 8. It is filed as functional. The source holds these as a separate data set.
For test [8], the target named is Adenosylmethionine-8-amino-7-oxononanoate aminotransferase (Mycobacterium tuberculosis, UniProt P9WQ81). Kind of test: Mycobacterium tuberculosis BioA enzyme inhibitor Measured in Biochemical System Using Plate Reader - 2163-02_Inhibitor_Dose_CherryPick_Activity. It is filed as functional, Mycobacterium tuberculosis UT205.
Chain of Adenosylmethionine-8-amino-7-oxononanoate aminotransferase (P9WQ81 whole entry): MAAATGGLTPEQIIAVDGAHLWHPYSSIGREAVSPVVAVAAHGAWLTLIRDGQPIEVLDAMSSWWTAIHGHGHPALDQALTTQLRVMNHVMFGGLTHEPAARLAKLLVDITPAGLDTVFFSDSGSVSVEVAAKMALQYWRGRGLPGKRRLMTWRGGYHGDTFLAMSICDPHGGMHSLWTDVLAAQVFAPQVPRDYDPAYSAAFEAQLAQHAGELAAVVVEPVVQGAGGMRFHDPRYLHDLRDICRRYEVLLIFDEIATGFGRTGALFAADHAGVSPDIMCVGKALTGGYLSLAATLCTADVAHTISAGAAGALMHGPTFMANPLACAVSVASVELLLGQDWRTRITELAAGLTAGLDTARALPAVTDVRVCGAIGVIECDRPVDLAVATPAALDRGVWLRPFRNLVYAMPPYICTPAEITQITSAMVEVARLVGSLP
Test [9] addresses T4, DNA repair and recombination protein RAD54-like (Homo sapiens, UniProt Q92698).
T4 sequence (Q92698 whole entry): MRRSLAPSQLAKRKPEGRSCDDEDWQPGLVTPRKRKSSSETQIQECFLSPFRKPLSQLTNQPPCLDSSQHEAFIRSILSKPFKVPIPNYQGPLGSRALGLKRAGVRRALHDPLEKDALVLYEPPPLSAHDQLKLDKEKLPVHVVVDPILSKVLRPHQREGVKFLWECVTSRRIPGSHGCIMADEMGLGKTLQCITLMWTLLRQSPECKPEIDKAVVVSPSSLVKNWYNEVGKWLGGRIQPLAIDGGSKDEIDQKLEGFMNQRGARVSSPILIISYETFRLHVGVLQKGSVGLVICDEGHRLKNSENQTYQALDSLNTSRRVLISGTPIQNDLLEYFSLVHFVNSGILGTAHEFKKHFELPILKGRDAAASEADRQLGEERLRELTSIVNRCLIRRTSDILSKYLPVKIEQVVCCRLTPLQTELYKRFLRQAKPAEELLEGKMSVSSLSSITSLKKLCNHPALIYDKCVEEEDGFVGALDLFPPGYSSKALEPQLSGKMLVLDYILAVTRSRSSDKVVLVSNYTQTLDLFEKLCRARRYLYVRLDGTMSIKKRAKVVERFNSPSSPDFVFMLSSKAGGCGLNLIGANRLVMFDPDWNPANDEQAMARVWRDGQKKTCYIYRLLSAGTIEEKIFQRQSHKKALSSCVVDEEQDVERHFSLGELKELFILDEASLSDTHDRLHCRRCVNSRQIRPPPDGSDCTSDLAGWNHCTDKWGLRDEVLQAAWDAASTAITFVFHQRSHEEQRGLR
Kind of test: inhibitors of human RAD54 branch migration, confirmation, biochemical, fluorescence, cherry-picked samples, dose series (AID 651657). The format is functional.

Test [10] addresses T5, Endoribonuclease toxin MazF (Escherichia coli K-12, UniProt P0AE70).
T5 sequence (P0AE70 whole entry): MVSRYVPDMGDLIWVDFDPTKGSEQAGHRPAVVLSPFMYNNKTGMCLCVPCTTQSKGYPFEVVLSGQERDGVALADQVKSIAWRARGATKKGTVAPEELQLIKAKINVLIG
Nature of the test: MazF toxin RNase activators, dose response, biochemical, fluorescence, single-stranded RNA substrate, uHTS hits (AID 588481). The format is functional.

The target of test [11] is Heat shock protein HSP 90-alpha (Homo sapiens, UniProt P07900). The format is functional, organism-based.
The target in test [12] is T5, Endoribonuclease toxin MazF. Nature of the test: fluorescent RNA oligo signal without MazF, dose response, counter-screen for MazEF activator project, biochemical, fluorescence, single-stranded RNase substrate (AID 588502). It is filed as functional.
The target of a further test is Melanocortin receptor 4 (Homo sapiens, UniProt P32245). It is filed as functional, cell-based.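 Note: Cell-based assay with luminescence read-out, confirmatory dose-response testing for agonist activity of biased ligands at MC4R; human U2OS cells with tagged receptor and beta-arrestin; potency of agonists that increase receptor coupling to beta-arrestin.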
Chain of Melanocortin receptor 4 (P32245 whole entry): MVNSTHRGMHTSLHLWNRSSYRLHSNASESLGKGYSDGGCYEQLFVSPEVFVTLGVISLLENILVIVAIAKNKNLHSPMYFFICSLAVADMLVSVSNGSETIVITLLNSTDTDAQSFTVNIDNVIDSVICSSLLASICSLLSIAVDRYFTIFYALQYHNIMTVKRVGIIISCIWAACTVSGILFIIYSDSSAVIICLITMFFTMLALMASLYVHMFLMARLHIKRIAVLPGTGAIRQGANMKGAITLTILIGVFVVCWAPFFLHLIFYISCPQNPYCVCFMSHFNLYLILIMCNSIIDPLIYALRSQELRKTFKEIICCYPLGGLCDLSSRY
In test [13] the target is DNA (cytosine-5)-methyltransferase 1 (Homo sapiens, UniProt P26358). Kind of test: DNMT1 methyltransferase inhibitors, confirmation, biochemical, fluorescent molecular beacon (AID 602386). It is filed as functional.
Chain of DNA (cytosine-5)-methyltransferase 1 (P26358 whole entry): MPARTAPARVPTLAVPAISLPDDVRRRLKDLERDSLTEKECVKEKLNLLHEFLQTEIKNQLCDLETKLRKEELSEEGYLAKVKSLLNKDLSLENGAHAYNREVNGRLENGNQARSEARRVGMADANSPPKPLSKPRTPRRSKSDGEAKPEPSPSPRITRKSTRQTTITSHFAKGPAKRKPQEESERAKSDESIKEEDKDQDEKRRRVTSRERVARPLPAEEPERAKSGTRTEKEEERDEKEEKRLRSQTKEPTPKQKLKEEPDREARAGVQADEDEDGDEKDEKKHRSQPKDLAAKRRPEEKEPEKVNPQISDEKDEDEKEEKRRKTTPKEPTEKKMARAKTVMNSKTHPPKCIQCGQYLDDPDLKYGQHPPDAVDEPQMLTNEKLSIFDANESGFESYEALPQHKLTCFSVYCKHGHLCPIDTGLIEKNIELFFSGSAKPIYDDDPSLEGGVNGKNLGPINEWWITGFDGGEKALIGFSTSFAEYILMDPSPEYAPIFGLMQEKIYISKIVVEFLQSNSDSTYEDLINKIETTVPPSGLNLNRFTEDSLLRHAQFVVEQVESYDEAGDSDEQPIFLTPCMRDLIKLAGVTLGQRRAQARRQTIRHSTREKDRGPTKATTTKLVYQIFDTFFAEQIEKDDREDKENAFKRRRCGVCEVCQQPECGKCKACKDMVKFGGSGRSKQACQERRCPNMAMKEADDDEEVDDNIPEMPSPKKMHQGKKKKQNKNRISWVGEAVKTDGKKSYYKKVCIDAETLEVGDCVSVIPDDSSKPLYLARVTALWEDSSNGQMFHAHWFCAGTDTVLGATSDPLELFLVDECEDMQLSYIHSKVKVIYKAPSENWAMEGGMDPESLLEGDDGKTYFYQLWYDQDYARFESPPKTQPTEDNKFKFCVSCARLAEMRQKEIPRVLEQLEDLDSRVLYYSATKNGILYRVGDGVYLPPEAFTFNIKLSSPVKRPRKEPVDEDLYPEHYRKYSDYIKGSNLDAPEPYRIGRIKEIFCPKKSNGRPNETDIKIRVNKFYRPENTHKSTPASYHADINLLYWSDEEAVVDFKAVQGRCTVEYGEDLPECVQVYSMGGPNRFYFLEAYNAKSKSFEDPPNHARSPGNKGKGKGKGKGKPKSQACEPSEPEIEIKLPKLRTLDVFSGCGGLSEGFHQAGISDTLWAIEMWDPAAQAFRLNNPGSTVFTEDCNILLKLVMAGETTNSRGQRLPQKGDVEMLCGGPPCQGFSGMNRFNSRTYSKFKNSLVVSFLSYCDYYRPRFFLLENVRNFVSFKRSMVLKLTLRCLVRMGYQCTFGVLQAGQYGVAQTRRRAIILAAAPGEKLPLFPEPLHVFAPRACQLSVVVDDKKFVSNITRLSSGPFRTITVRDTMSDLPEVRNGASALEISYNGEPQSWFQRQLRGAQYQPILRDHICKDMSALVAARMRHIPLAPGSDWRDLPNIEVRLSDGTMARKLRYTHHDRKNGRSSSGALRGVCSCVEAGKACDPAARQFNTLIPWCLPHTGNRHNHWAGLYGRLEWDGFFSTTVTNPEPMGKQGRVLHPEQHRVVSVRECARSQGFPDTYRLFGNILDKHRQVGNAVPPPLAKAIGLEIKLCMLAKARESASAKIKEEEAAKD
Test [14] has as its target T6, Histone-lysine N-methyltransferase NSD2 (Homo sapiens, UniProt O96028).
T6 sequence (O96028 whole entry): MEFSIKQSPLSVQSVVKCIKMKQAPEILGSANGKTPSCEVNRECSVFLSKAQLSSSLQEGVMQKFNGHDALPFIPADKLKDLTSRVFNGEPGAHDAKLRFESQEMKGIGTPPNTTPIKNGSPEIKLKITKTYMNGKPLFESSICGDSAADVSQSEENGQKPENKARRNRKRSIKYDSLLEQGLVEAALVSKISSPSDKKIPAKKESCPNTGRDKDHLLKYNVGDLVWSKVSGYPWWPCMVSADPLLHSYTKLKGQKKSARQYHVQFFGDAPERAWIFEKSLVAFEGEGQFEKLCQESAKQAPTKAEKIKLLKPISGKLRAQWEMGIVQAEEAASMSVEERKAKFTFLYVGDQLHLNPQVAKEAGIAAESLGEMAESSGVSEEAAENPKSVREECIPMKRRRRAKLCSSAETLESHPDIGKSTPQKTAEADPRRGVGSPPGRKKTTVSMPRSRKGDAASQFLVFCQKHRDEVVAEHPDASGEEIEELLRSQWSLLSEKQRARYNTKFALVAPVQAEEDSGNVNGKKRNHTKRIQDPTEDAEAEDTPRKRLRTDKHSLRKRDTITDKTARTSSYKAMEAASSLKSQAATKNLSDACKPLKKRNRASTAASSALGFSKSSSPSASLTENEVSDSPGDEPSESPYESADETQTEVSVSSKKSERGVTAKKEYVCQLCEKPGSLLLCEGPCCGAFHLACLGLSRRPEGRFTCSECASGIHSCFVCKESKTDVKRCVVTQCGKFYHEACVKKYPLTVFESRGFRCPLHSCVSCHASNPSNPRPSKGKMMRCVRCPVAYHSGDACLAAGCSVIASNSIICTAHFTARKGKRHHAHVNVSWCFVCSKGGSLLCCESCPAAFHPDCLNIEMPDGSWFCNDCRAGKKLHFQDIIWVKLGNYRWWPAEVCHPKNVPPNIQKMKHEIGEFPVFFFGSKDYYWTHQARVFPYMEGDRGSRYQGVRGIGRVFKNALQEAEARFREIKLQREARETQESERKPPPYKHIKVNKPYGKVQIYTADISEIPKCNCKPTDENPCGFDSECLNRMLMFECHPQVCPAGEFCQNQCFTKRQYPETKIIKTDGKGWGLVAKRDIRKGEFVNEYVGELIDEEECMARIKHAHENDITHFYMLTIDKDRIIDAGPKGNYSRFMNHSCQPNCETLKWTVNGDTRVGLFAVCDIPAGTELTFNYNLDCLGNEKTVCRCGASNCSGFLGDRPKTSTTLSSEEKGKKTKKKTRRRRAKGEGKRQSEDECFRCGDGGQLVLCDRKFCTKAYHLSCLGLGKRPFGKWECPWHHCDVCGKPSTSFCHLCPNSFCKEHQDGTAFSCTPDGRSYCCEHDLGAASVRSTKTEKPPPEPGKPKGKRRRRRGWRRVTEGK
It is filed as biochemical.

Activity calls are given as the source filed them. A value given as a limit tells only on which side of the number the result lay.
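Throughout, for IC50 Mean: confirmatory dose-response retesting of NadD inhibitor hits first found in an ultra-high-throughput screen.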

Chain of Genome polyprotein (P29990 2492-3391 limits assumed): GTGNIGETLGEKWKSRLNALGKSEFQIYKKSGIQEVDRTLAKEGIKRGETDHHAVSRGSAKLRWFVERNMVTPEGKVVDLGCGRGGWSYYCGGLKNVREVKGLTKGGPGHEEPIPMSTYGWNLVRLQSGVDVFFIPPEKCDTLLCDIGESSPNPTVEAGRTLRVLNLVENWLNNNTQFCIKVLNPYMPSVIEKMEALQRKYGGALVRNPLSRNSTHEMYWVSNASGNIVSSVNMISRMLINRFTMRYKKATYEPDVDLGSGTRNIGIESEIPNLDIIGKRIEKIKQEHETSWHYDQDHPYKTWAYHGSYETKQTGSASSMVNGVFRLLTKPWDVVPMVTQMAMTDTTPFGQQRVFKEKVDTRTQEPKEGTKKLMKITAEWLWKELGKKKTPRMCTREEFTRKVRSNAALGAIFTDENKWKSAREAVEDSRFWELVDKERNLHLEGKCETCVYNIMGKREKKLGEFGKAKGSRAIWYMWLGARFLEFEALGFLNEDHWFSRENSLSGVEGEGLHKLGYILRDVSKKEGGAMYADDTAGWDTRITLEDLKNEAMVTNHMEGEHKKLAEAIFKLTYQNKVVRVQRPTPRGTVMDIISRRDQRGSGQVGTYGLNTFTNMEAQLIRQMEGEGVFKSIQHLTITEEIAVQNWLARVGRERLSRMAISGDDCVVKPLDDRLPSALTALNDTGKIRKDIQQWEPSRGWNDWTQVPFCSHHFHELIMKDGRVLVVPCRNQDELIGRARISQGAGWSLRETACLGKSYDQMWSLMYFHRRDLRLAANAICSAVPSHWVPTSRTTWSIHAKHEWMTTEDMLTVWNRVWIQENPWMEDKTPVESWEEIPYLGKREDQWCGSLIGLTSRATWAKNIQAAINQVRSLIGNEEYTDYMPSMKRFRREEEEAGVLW

Consider `COC(=O)c1cccc(Nc2nc(-c3cccnc3)nc3ccccc23)c1`, for which the IC50 in the test on H9c2 was 4.96 µM (active); in test [1], 38.3 µM (inactive).
In the case of `C=C1C(=O)O[C@H]2C[C@H]1[C@@H](OC(C)=O)C/C(C)=C/CC/C(C)=C\CC[C@]2(C)O`, in [2], the IC50 was 3.21 µM (active).
For `Cc1cccc(NS(=O)(=O)c2ccc3[nH]c(-c4ccccc4)nc3c2)c1C`, in [3], the IC50 is 25.1 µM (inactive).
Consider `CCCOc1ccc(C(=O)N/N=C/c2ccc(-c3ccc(S(=O)(=O)Nc4ncccn4)cc3)o2)cc1`, for which the IC50 at Aminopeptidase N is 26.1 µM (active); on Genome polyprotein, > 100 µM (active); in test [4], 6.45 µM (active); in [5], 31 µM (active).
For the compound `O=C1CC(Nc2ccc([N+](=O)[O-])cc2)=NN1c1c(Cl)cc(Cl)cc1Cl`, the results for the IC50 (on Genome polyprotein; in test [6]; in test [7]) were 48.4 µM (active), 12.3 µM (active) and 16 µM (active), respectively.
The term AC50 denotes the concentration at which the activity in the assay is half-maximal. For `CN1CCN(c2[nH]cnc3c4cc(F)ccc4nc2-3)CC1`, the AC50 in [8] was 2.8 µM (active); in test [9], 28.8 µM (active).
Take `Cc1cccc(C)c1NC(=O)C(c1ccc(C#N)cc1)n1c(=O)c(-c2ccco2)nc2ccccc21` (stereo unspecified): the IC50 in [2] was 1.86 µM (active).
Turning to `O=C(c1ccccc1)[C@@H]1[C@@H](C(=O)c2ccc(F)cc2)[C@@]2(C(=O)Nc3ccccc32)[C@H]2c3ccccc3C=CN12`, the values for the IC50 in test [6] and in test [7] were 12.1 µM (active) and 1.21 µM (active), respectively.
One may read the EC50 as the concentration needed to bring the measured effect to its halfway point. On to `COc1ccc2oc(=O)c(-c3csc(Nc4cccc(O)c4)n3)cc2c1`, for which the values for the EC50 (in test [10]; in test [12]; at Melanocortin receptor 4) were > 99 µM (inactive), > 99 µM (inactive) and > 89.2 µM (inactive), respectively. For the same compound, in test [11], the AC50 was 7.16 µM (active). For the same compound, the results for the IC50 in test [4] and in [5] were 19.2 µM (active) and 29 µM (active), respectively.
Consider `Cc1ccc(-c2nn(-c3ccccc3)cc2/C=C/C(=O)Nc2nccs2)cc1`, for which, in test [1], the IC50 is 20.3 µM (inactive).
For the compound `Cc1cc(C(=O)NC2CC(C)(C)Cc3c2cnn3-c2cccc(F)c2)nn1C` (stereo unspecified), the AC50 in test [8] is 2.72 µM (active).
Regarding `CC1=C/C(=C\c2ccc(Br)o2)C(=O)O1`, in test [13], the IC50 was 4.99 µM (active). In test [14], the AC50 is 4.71 µM (active).

For the origin of these results see ChEMBL document CHEMBL1201862, “PubChem BioAssay data set” (2004).
